In brackets after ≈: the same amount, converted by molar mass. Activity calls are given as the source filed them. The rule behind the calls is not given here.
What was measured:
[1] = system: Mycobacterium tuberculosis; test: Antitubercular activity against Mycobacterium tuberculosis mc2 6230 assessed as inhibition of bacterial growth incubated for 5 days by REMA; assay type: functional; conditions: mc2 6230, 120 h, time 5 day
Staphylococcus aureus = test: Antibacterial activity against Staphylococcus aureus; assay type: functional, organism-based
Klebsiella pneumoniae = test: Antibacterial activity against Klebsiella pneumoniae; assay type: functional, organism-based
Enterococcus faecalis = test: Antibacterial activity against Enterococcus faecalis; assay type: functional, organism-based
Candida albicans = test: […] activity against Candida albicans; assay type: functional, organism-based
[2] = system: Trichophyton mentagrophytes; test: […] activity against Trichophyton mentagrophytes; assay type: functional, organism-based
Escherichia coli = test: Antibacterial activity against Escherichia coli; assay type: functional, organism-based
Aspergillus fumigatus = test: […] activity against Aspergillus fumigatus; assay type: functional, organism-based
Trichophyton rubrum = test: […] activity against Trichophyton rubrum; assay type: functional, organism-based
[3] = target: NAD(P)H dehydrogenase [quinone] 1 (Mus musculus) (UniProt Q64669); test: Induction of quinone reductase activity in mouse Hepa1c1c7 cells at 10 uM incubated for 24 hrs by MTT based assay; assay type: cell-based; conditions: filed as activator
Sequence of NAD(P)H dehydrogenase [quinone] 1 (Mus musculus) (Q64669 whole entry): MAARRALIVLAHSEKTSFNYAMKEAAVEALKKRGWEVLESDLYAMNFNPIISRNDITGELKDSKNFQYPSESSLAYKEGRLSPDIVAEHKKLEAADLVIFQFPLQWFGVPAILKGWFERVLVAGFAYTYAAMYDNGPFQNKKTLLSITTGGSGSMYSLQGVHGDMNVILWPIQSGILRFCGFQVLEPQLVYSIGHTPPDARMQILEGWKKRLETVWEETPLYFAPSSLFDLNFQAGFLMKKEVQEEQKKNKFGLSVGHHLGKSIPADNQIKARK

Salmonella enterica = test: Antibacterial activity against Salmonella enterica; assay type: functional, organism-based
Enterococcus faecium = test: Antibacterial activity against Enterococcus faecium; assay type: functional, organism-based
[4] = Cytotoxicity against mouse Hepa1c1c7 cells at higher concentration; assay type: cell-based

| SMILES | MIC50 [1] [µg/mL] | Activity (Staphylococcus aureus) | Activity (Klebsiella pneumoniae) | Activity (Enterococcus faecalis) | Activity (Candida albicans) | Activity [2] | Activity (Escherichia coli) | Activity (Aspergillus fumigatus) | Activity (Trichophyton rubrum) | fold change (FC) [3] | Activity (Salmonella enterica) | Activity (Enterococcus faecium) | Activity [4] |
| --- | --- | --- | --- | --- | --- | --- | --- | --- | --- | --- | --- | --- | --- |
| NNC(=O)c1ccncc1 [ISONIAZID] | 0.03 (≈ 0.219 µM) |  |  |  |  |  |  |  |  |  |  |  |  |
| CC(C)/C=C/C/C=C\c1ccccc1/C=C/C(=O)N[C@H](C)C(=O)N[C@@H]1COC(=O)[C@H]([C@H](C)C(=O)O)NC(=O)[C@H](CNC(=O)[C@@H](N)C(C)C)NC(=O)[C@H](C(C)C)NC(=O)[C@@H](CC(C)C)NC1=O | 82.8 (≈ 89.7 µM) | inactive | inactive | inactive | inactive | inactive | inactive | inactive | inactive | 2.4 | inactive | inactive | Toxic |
| CC[C@@H](CO)NCCN[C@@H](CC)CO [ETHAMBUTOL] | 0.83 (≈ 4.06 µM) |  |  |  |  |  |  |  |  |  |  |  |  |
| C/C=C/C=C/C/C=C\c1ccccc1/C=C/C(=O)NC(C)C(=O)N[C@@H]1COC(=O)[C@H]([C@H](C)C(=O)O)NC(=O)[C@H](CNC(=O)C(N)C(C)C)NC(=O)[C@H](C(C)C)NC(=O)[C@@H](CC(C)C)NC1=O (some centres undefined) |  |  |  |  |  |  |  |  |  | 2.6 |  |  |  |
| CC(C)C/C=C/C=C/c1ccccc1/C=C/C(=O)N[C@H](C)C(=O)N[C@@H]1COC(=O)[C@H]([C@H](C)C(=O)O)NC(=O)[C@H](CNC(=O)[C@@H](N)C(C)C)NC(=O)[C@H](C(C)C)NC(=O)[C@@H](CC(C)C)NC1=O |  | inactive | inactive | inactive | inactive | inactive | inactive | inactive | inactive | 2.3 | inactive | inactive | Toxic |
| C/C=C/C=C/C=C/c1ccccc1/C=C/C(=O)NC(C)C(=O)N[C@@H]1COC(=O)[C@H]([C@H](C)C(=O)O)NC(=O)[C@H](CNC(=O)C(N)C(C)C)NC(=O)[C@H](C(C)C)NC(=O)[C@@H](CC(C)C)NC1=O (some centres undefined) |  |  |  |  |  |  |  |  |  | 2.1 |  |  |  |
